Experimental data published in US20140243332A1, “METHODS OF TREATING CANCERS CHARACTERIZED BY ABERRENT ROS1 ACTIVITY” (Oregon Health & Science University, priority 2013, published 2014).
Where “and” joins values, the source holds several entries; their conditions need not be identical. Equal entries are not always repeated. Where two headings read alike, the source gives them in different places.

Columns and labels:
[1] = tested on: HCC4011 cells; assay: Cell viability assay, HCC4011; format: cell-based, human; conditions: HCC4011 cells (activated EGFR), FIG. 6B
Experimental: (§1) IC50 was determined from non-linear regression curve fit analysis of the dose response curves.

[2] = biological target: T1, FIG-ROS (Homo sapiens, UniProt P08922); assay: Immunoblot of Ba/F3 FIG-ROS lysates; format: cell-based; design: expressed in transfected cells; host or cells: Ba/F3 (A14), retroviral pMSCV-IRES-GFP; the other entry of the earlier key: GOPC (Q9HD26, Golgi-associated PDZ and coiled-coil motif-containing protein); conditions: Ba/F3 FIG-ROS cells, increasing amounts, immunoblot FIG. 1C
T1 sequence (P08922 with tags, fused parts or gaps): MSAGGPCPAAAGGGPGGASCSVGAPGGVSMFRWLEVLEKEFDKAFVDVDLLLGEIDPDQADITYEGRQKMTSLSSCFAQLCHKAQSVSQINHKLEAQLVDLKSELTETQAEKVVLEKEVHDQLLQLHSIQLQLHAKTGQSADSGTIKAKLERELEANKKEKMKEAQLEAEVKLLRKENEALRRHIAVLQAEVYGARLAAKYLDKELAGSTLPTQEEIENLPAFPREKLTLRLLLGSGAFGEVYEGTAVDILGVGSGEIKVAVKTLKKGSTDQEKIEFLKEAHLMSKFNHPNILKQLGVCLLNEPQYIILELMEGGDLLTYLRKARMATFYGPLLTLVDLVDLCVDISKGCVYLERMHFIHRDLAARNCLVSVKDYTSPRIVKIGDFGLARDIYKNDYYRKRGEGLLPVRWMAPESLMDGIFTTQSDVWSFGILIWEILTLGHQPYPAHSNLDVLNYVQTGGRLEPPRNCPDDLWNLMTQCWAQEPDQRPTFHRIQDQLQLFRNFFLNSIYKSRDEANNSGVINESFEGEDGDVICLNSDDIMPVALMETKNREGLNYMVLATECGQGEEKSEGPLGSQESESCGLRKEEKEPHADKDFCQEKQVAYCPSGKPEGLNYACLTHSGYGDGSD
Experimental: (§2) FIG. 1C is an image of an immunoblot of lysates of Ba/F3 FIG-ROS and Ba/F3 SLC-ROS and the indicated downstream effectors after treatment with the indicated compounds. Images shown are representative of three independent experiments.
(§3) Ba/F3 FIG-ROS, Ba/F3 SLC-ROS, HCC78 and mCC cell lines were treated with the indicated concentration of inhibitors for 1-2 hours. […] The protein content of the cell lysates was determined and lysates were either used for immunoprecipitation where indicated or extracted with SDS Sample buffer for 15 minutes at 80° C. Proteins were transferred to Immobilon-FL membranes and immunoblotted with antibodies specific for phospho-ROS1 (Cell Signaling Technology (CST) #3078), total ROS1 (CST #3266), phopsho-Shp2 (CST #3751), total Shpt (CST #3752), phospho-Stat3 (CST #9145), total Stat3 (CST #4904), phospho-Erk1/2 (CST #9101), total Erk2 (Santa Cruz #SC-1647), phospho-S6 (CST #4858), total S6 (CST #2216), phospho-Src (CST #2105), total Src (CST #2110), α-tubulin (Sigma T6199), or β-actin (Sigma A1978) as indicated. Images of the blots were generated by the LI-COR Odyssey® imaging system, following the manufacturer's protocol for immunoblot detection with use of IR-dye conjugated secondary antibodies.

[3] = tested on: PC9 cells; assay: Cell viability assay, PC9; format: cell-based, human; conditions: PC9 cells (activated EGFR), FIG. 6B
Experimental: as §1

[4] = tested on: FIG-ROS murine cholangiocarcinoma tumor cells; assay: cells; conditions: Mus musculus, read-out: IC50 cell growth
Experimental: (§4) Hepatoblasts of the genotype AlbCre^+/−; Isl Kras^G12D+/−; p53^R172H/loxp were isolated from ED14.5 mouse embryos and retrovirally transduced with either the FIG-ROS fusion, turbo RFP or a short hairpin RNA against Pten (shPten.1522). At 48 hours following transduction, 1×10^6 cells were resuspended in 25 μl Matrigel and injected sub-capsular into the livers of immune-deficient mice. Upon tumor formation, tumors were explanted and subjected to collagenase digestion. Digests were plated onto gelatin-coated plates. Tumor cells were enriched by either differential trypsinization or cell sorting. […] These four cell lines were further cultured and maintained in DMEM-High glucose medium supplemented with 10% FCS, L-glutamine and penicillin/streptomycin.
(§5) Cell lines were distributed in 96-well plates and incubated with the indicated concentrations of inhibitor for 72 hours. […] Ba/F3 cell lines were plated at 4×10^3 cells/well. HCC78 and mCC cell lines were plated at 1.5×10^3 cells/well. All cell types were seeded in a final volume of 80 microliters. A 20 microliter volume of five-fold concentrated inhibitor media was added. Cell proliferation was measured using a […] viability assay (CellTiter96 Aqueous One® Solution; Promega). A BioTek Synergy 2® plate reader was used to read the absorbance at 490 nm at 30 minutes and 1 hour after addition of MTS. To facilitate comparison between experiments, the raw MTS absorbance of vehicle (0.1% DMSO) treated cells was set to 1 and absorbance from inhibitor treated wells was normalized to the vehicle treated value. […] Data were normalized using Microsoft Excel® and further non-linear regression curve fit analysis of the normalized data for determination of IC50 was performed using Graphpad Prism® software.
(§6) To directly assess inhibition of FIG-ROS phosphorylation, immunoblot analyses of lysates from vehicle or inhibitor-treated cells were performed.

[5] = tested on: shPten murine cholangiocarcinoma tumor cells; assay: cells; conditions: Mus musculus, read-out: IC50 cell growth
Experimental: as §4, §5, §6

[6] = tested on: FIG-ROS cholangiocarcinoma tumor cells; assay: Anchorage-independent colony formation in soft agar, FIG-ROS cholangiocarcinoma cells; format: cell-based, murine; conditions: dose dependent
Description: […]. The values indicate the mean and the error bars indicate the standard error of the mean of 3 independent wells.
(§7) . The inhibition was dose dependent (FIG. 2B). […].

[7] = tested on: HCC78 cells; assay: Cell viability (MTS) assay, HCC78; format: cell-based, human; conditions: for HCC78 cell growth sensitivity to MET inhibitors: FIG. 6C
Experimental: (§8) The parental Ba/F3 cell line was cultured in RPMI 1640 medium with 10% FBS, L-glutamine, penicillin/streptomycin and 15% WEHI-conditioned media. Ba/F3 cell lines were maintained at densities of 0.5×10^6 to 1.5×10^6 per ml of media. FIG-ROS and SLC-ROS Ba/F3 lines were created by infecting the parental Ba/F3 with retrovirus expressing either human FIG-ROS-S (indicated FIG-ROS herein) or SLC-ROS-S (indicated SLC-ROS herein). Stable transfectant lines were sorted for GFP expression on a FACS Aria® flow cytometer. Cells were counted daily using Guava ViaCount® reagent and Guava Personal Cell Analysis® flow cytometer. […] Early passage NIH3T3 cells were infected with retrovirus expressing either FIG-ROS or SLC-ROS and sorted for GFP expression as described above for Ba/F3 cells. HCC78 cells were cultured in RPMI 1640 medium with 10% FBS, L-glutamine, and penicillin/streptomycin. This media is referred to as RPMI-10% FBS herein.

[8] = tested on: ENU-treated Ba/F3 FIG-ROS cells; assay: Accelerated cell-based (ENU) mutagenesis screen, outgrowth of Ba/F3 FIG-ROS clones
[9] = biological target: SLC-ROS (Homo sapiens, UniProt P08922); assay: Immunoblot of Ba/F3 SLC-ROS lysates; format: cell-based; design: SLC34A2 N-terminal portion, fusion partner; expressed in transfected cells; host or cells: Ba/F3 (A15), retroviral pMIG; the other entry of the earlier key: SLC34A2 (O95436, Sodium-dependent phosphate transport protein 2B); conditions: Ba/F3 SLC-ROS cells, increasing amounts, immunoblot FIG. 1C
Chain of SLC-ROS (P08922 with tags, fused parts or gaps): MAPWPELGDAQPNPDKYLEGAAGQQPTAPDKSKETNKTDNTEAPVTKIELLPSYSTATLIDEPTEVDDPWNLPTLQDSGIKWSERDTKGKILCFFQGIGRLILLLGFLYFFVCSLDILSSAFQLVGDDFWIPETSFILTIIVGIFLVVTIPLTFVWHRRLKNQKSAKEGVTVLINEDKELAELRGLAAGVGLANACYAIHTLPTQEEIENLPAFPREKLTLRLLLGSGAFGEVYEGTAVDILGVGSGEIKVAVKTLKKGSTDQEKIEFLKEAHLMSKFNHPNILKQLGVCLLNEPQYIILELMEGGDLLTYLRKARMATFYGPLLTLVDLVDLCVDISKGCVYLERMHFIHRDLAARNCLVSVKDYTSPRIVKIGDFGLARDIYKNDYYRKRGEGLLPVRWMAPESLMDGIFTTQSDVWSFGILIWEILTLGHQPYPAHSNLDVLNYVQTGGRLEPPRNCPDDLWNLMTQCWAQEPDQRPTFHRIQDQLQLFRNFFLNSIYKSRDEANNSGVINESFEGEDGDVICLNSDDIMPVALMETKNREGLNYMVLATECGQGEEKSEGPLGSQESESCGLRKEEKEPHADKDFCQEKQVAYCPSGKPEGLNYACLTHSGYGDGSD
Experimental: as §2, §3

[10] = tested on: Ba/F3 parental cells; assay: Cell viability (MTS) assay, Ba/F3 parental; format: cell-based
Experimental: as §8
(§9) […]. The Ba/F3 parental line was also tested. (O'Dwyer M E and Druker B J, Lancet Oncology 1, 207-211 (2000); Walters D K et al, Cancer Cell 10, 65-75 (2006); and Heukamp L C et al, Science Translational Medicine 4, 141ra191 (2012); […].

[11] = tested on: FIG-ROS tumors; assay: In vivo treatment of mice bearing subcutaneous FIG-ROS cholangiocarcinoma tumors; conditions: 25 mg/kg oral gavage once daily, 9 days, immunodeficient mice; foretinib p<0.0001 for Lines 4 and 6
[12] = biological target: T1, FIG-ROS; assay: Immunoblot of FIG-ROS murine cholangiocarcinoma cell lysates; format: cell-based; design: expressed in transfected cells; host or cells: murine cholangiocarcinoma tumour cell lines (lines 3 and 4) derived from transduced mouse hepatoblasts; the other entry of the earlier key: GOPC (Q9HD26, Golgi-associated PDZ and coiled-coil motif-containing protein); conditions: 100 nM, FIG-ROS murine cholangiocarcinoma cells
Experimental: […]. Images shown are representative of three independent experiments.
as §3, §7

[13] = biological target: T2, Ba/F3 FIG-ROS cells (Homo sapiens, UniProt P08922); assay: Cell viability (MTS) assay, Ba/F3 FIG-ROS; format: cell-based; conditions: read-out: IC50 (50% growth inhibitory concentration); Ba/F3 FIG-ROS cells, 72 hours, MTS
T2 construct: fused on or other part: GFP is co-expressed from an IRES in pMIG and is not fused; Q9HD26 (Golgi-associated PDZ and coiled-coil motif-containing protein)
T2 sequence (P08922 whole entry, change not shown, the tested form may be a part): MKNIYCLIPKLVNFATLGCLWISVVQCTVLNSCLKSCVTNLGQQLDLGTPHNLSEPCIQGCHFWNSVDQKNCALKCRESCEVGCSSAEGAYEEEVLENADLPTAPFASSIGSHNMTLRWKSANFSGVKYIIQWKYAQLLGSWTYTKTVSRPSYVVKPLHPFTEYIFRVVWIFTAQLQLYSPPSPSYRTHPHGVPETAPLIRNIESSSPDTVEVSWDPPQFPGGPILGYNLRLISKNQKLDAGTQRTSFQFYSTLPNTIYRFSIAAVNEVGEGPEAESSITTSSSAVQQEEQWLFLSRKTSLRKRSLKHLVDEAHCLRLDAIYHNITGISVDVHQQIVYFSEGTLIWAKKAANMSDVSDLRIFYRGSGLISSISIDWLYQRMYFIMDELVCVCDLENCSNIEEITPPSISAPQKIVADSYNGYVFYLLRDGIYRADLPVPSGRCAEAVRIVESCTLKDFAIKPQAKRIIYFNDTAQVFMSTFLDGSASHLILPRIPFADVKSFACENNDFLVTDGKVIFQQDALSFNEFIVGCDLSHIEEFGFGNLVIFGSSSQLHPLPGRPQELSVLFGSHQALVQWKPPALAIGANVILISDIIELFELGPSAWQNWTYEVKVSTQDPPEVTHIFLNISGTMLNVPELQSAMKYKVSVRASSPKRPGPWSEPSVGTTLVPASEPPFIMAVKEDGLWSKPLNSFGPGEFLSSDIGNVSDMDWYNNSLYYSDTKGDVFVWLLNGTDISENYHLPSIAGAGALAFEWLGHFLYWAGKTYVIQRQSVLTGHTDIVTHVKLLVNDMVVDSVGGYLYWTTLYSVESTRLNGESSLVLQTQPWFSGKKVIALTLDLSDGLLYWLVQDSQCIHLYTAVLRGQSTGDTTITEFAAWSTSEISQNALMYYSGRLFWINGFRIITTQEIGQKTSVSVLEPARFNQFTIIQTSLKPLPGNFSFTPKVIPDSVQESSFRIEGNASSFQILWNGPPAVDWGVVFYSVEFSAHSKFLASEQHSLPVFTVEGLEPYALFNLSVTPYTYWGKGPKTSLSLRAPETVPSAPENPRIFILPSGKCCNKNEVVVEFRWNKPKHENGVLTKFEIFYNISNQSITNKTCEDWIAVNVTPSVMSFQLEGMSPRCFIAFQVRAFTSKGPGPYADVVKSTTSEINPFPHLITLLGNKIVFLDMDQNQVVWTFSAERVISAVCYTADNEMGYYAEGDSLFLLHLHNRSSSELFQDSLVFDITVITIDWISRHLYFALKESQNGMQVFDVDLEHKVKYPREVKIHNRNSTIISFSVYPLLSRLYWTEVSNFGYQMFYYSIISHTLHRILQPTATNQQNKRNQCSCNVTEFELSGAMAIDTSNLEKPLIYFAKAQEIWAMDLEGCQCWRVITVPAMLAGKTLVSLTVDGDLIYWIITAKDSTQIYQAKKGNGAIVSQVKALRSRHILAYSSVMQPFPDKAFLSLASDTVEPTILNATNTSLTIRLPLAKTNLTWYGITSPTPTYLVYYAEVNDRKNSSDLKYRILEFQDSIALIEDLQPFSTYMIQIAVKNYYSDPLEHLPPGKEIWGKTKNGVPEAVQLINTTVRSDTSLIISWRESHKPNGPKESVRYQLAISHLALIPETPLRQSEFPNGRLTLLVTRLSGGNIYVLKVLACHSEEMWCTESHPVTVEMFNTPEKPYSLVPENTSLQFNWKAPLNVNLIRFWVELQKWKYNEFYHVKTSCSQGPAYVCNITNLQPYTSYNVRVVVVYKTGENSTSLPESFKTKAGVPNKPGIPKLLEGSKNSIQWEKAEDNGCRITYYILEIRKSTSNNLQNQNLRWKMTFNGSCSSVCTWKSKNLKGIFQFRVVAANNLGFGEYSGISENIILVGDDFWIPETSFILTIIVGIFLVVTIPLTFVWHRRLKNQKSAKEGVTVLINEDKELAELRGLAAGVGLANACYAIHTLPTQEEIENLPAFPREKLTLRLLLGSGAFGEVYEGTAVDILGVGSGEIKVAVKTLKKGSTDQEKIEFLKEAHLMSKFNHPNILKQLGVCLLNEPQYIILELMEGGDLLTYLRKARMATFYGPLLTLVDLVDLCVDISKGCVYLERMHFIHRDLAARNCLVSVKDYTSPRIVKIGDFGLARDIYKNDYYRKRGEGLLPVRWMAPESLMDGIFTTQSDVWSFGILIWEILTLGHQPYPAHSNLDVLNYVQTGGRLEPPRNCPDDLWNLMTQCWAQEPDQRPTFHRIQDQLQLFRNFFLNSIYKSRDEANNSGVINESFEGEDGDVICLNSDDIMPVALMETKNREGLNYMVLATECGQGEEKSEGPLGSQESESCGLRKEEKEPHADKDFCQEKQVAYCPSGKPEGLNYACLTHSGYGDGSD
Description: as §8, with “Ba/F3” for “The parental Ba/F3 cell line was cultured in RPMI 1640 medium with 10% FBS, L-glutamine, penicillin/streptomycin and 15% WEHI-conditioned media. Ba/F3”, “HCC78 cells were cultured in RPMI 1640 medium with 10% FBS, L-glutamine, and penicillin/streptomycin.” left out
The FIG-ROS-S (FIG-ROS) fusion protein has been reported in non-small cell lung cancers (NSCLC), glioblastomas, and cholangiocarcinomas.

[14] = biological target: T3, Ba/F3 SLC-ROS cells (Homo sapiens, UniProt P08922); assay: Cell viability (MTS) assay, Ba/F3 SLC-ROS; format: cell-based; conditions: 72 hours, read-out: IC50 (the source's name)
T3 construct: SLC-ROS-S (SLC-ROS) was cloned from cDNA made from HCC78 cells; fused on or other part: GFP is co-expressed from an IRES in pMIG and is not fused; O95436 (Sodium-dependent phosphate transport protein 2B)
T3 sequence (P08922 whole entry, change not shown, the tested form may be a part): as above
Experimental: as §8, §9

[15] = biological target: Ba/F3 ALK F1174L cells (Homo sapiens, UniProt Q9UM73, F1174L, cells depend on it); assay: Cell viability (MTS) assay, Ba/F3 ALK F1174L; format: cell-based; conditions: 72 hours, read-out: IC50 (the source's name)
[16] = biological target: Ba/F3 Bcr-Abl cells (Homo sapiens, UniProt P00519); assay: Cell viability (MTS) assay, Ba/F3 Bcr-Abl; format: cell-based; conditions: read-out: IC50 (insensitive/resistant up to stated concentration)
[17] = biological target: Ba/F3 JAK3 A572V cells (Homo sapiens, UniProt P52333, A572V, cells depend on it); assay: Cell viability (MTS) assay, Ba/F3 JAK3 A572V; format: cell-based; conditions: read-out: IC50 (insensitive/resistant up to stated concentration)
Chain of Ba/F3 JAK3 A572V cells (P52333 whole entry A572V): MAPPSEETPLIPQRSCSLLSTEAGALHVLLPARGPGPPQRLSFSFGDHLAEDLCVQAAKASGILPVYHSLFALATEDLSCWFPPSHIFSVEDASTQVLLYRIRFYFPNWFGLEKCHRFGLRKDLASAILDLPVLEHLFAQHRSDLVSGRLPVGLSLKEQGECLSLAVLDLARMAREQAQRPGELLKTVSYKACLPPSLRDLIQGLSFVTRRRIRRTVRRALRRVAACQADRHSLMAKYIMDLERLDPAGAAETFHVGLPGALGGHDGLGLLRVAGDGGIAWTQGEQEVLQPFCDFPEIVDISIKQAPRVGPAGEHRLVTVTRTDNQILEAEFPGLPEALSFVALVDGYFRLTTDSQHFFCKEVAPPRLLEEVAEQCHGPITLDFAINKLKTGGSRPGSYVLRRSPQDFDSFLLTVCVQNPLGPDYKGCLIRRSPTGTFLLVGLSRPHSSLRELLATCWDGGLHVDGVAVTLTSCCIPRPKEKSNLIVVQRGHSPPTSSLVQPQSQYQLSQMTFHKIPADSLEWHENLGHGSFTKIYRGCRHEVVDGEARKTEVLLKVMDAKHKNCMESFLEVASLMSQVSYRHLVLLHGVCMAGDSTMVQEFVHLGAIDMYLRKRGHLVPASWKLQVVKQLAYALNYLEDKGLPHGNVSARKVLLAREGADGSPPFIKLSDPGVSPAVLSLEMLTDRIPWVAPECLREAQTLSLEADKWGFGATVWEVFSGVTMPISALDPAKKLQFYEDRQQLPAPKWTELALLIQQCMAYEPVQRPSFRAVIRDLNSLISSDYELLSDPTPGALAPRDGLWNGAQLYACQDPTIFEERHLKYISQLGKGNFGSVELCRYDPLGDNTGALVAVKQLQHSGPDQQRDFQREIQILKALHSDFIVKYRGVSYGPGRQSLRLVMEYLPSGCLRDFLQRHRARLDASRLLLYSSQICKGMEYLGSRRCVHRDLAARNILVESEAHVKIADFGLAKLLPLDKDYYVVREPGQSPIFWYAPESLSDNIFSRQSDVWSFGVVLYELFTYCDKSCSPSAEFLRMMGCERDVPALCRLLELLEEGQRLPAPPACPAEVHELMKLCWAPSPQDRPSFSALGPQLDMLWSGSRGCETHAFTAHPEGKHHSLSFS

[18] = biological target: T2, Ba/F3 FIG-ROS cells; assay: Apoptosis induction (Annexin V / 7-AAD), Ba/F3 FIG-ROS; format: cell-based; conditions: 15 nM, 48 hours
Experimental: (§10) FIG. 5A is a set of three bar graphs depicting the induction of apoptosis in Ba/F3 FIG-ROS, Ba/F3 SLC-ROS and Ba/F3 ALK F1174L cells after 48 hours of treatment with the indicated doses of the indicated compounds. The number of cells that were Annexin V and 7-AAD positive after inhibitor treatment was normalized to number of cells staining positive with these markers with vehicle treatment (basal). A minimum of 2000 cells were counted per condition. Rate of apoptosis is shown as fold over basal. Basal apoptosis in Ba/F3 FIG-ROS, Ba/F3 SLC-ROS and Ba/F3 ALK F1174 cells was 3.6%, 2.8% and 1.2% respectively.

[19] = biological target: T3, Ba/F3 SLC-ROS cells; assay: Apoptosis induction (Annexin V / 7-AAD), Ba/F3 SLC-ROS; format: cell-based; conditions: 15 nM, 48 hours
Experimental: as §10

[20] = Mus musculus, BaF3, Ba/F3 parental cells, read-out: IC50 (insensitive/resistant up to stated concentration)

Compound: C[C@@H](Oc1cc(-c2cnn(C3CCNCC3)c2)cnc1N)c1c(Cl)ccc(F)c1Cl [crizotinib]
- sensitivity of cell growth [1]: relatively insensitive
- autophosphorylation of FIG-ROS and ROS1-driven signaling (phospho-Shp2, phospho-ERK1/2) [2]: dose dependent decrease
- sensitivity of cell growth [3]: relatively insensitive
- IC50 [4]: 690 nM
- IC50 [5]: > 2000 nM
- anchorage-independent colonies in soft agar [6]: inhibited
- IC50 ([7]; Homo sapiens, 72 hour exposure, read-out: IC50 HCC78 cell growth): 2200 nM
- frequency of outgrowth of clones ([8]; 500 nM crizotinib): 40%
- outgrowth of clones ([8]; 2000 and 2500 nM crizotinib): no outgrowth of clones
- autophosphorylation of SLC-ROS and ROS1-driven signaling (phospho-Shp2, phospho-ERK1/2) [9]: dose dependent decrease
- IC50 ([10]; Mus musculus, BaF3, read-out: IC50 (insensitive/resistant up to stated concentration)): > 2000 nM
- FIG-ROS tumor volume [11]: moderate but statistically insignificant effect
- auto-phosphorylation of FIG-ROS and phosphorylation of Shpt and ERK1/2 [12]: more moderate effect

Compound: Cn1cc(-c2ccc3nnc(Sc4ccc5ncccc5c4)n3n2)cn1 [SGX-523]
- HCC78 cell growth sensitivity to MET inhibitors [7]: resistant

Compound: COc1cc(N2CCC(N3CCN(C)CC3)CC2)ccc1Nc1ncc(Cl)c(Nc2ccccc2S(=O)(=O)C(C)C)n1 [TAE684]
- autophosphorylation of FIG-ROS and ROS1-driven signaling (phospho-Shp2, phospho-ERK1/2) [2]: dose dependent decrease
- GI50 [13]: 2 nM and 1.8 nM
- autophosphorylation of SLC-ROS and ROS1-driven signaling (phospho-Shp2, phospho-ERK1/2) [9]: dose dependent decrease
- GI50 [14]: 28 nM
- IC50 [10, 20]: > 2000 nM

Compound: Cn1cc(-c2ccc3nnc(C(F)(F)c4ccc5ncccc5c4)n3n2)cn1 [JNJ38877605]
- HCC78 cell growth sensitivity to MET inhibitors [7]: resistant

Compound: C#Cc1cccc(Nc2ncnc3cc(OCCOC)c(OCCOC)cc23)c1 [erlotinib]
- sensitivity of cell growth [1]: sensitive
- sensitivity of cell growth [3]: sensitive

Compound: CNC(=O)c1c(F)cccc1Nc1nc(Nc2cc3c(cc2OC)CCN3C(=O)CN(C)C)nc2[nH]ccc12 [GSK1838705A]
- GI50 [15]: 10 nM
- GI50 [16]: > 10000 nM
- GI50 [13]: 250 nM
- GI50 [14]: 1000 nM
- IC50 ([10]; Ba/F3 parental cells, read-out: IC50 (insensitive/resistant up to stated concentration)): > 10000 nM
- GI50 [17]: > 10000 nM

Compound: Cn1c2ccccc2c2c3c(c4c5ccccc5n(CCC#N)c4c21)CNC3=O [Gö6976, 12-(2-cyanoethyl)-6,7,12,13-tetrahydro-13-methyl-5-oxo-5H-indolo(2,3-a)pyrrolo(3,4-c)-carbazole]
- apoptosis induction [18]: induced apoptosis
- autophosphorylation of FIG-ROS and ROS1-driven signaling (phospho-Shp2, phospho-ERK1/2) [2]: dose dependent decrease
- GI50 [13]: 1.4 nM
- autophosphorylation of SLC-ROS and ROS1-driven signaling (phospho-Shp2, phospho-ERK1/2) [9]: dose dependent decrease
- IC50 [10, 20]: > 2000 nM
- apoptosis induction [19]: induced apoptosis
